#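 Grown in 96-well plates, cells were treated for 48 hours with each compound at five concentrations. Insufficient inhibition: endpoint recorded as highest concentration tested. Definition used: TGI = concentration required for complete inhibition of growth.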
# What was measured:
# Assay in all cases: NCI-60 cell line screen, 48 h
# SW-620 colon = tested on: SW-620 colon
# OVCAR-4 ovarian = tested on: OVCAR-4 ovarian
# MALME-3M melanoma = tested on: MALME-3M melanoma
# HOP-62 NSCLC = tested on: HOP-62 NSCLC
# NCI-H460 lung = tested on: NCI-H460 lung
# RPMI-8226 leukemia = tested on: RPMI-8226 leukemia
# U251 CNS = tested on: U251 CNS
# TK-10 renal = tested on: TK-10 renal
# EKVX NSCLC = tested on: EKVX NSCLC
# MOLT-4 leukemia = tested on: MOLT-4 leukemia
# LOX IMVI melanoma = tested on: LOX IMVI melanoma
# SN12C renal = tested on: SN12C renal
# KM20L2 colon = tested on: KM20L2 colon
# CAKI-1 renal = tested on: CAKI-1 renal
# HL-60(TB) leukemia = tested on: HL-60(TB) leukemia
# CCRF-CEM leukemia = tested on: CCRF-CEM leukemia
# OVCAR-3 ovarian = tested on: OVCAR-3 ovarian
# UACC-62 melanoma = tested on: UACC-62 melanoma
# NCI-H522 lung = tested on: NCI-H522 lung
# M19-MEL melanoma = tested on: M19-MEL melanoma
# DMS 273 small cell lung = tested on: DMS 273 small cell lung
# HOP-92 NSCLC = tested on: HOP-92 NSCLC
# SK-MEL-28 melanoma = tested on: SK-MEL-28 melanoma
# KM12 colon = tested on: KM12 colon
# A549 NSCLC = tested on: A549 NSCLC
# DMS 114 small cell lung = tested on: DMS 114 small cell lung
# HT29 colon = tested on: HT29 colon
# SF-539 CNS = tested on: SF-539 CNS
# SK-MEL-2 melanoma = tested on: SK-MEL-2 melanoma
# SK-OV-3 ovarian = tested on: SK-OV-3 ovarian
# SF-268 CNS = tested on: SF-268 CNS
# UO-31 renal = tested on: UO-31 renal
# OVCAR-8 ovarian = tested on: OVCAR-8 ovarian
# M14 melanoma = tested on: M14 melanoma
# COLO 205 colon = tested on: COLO 205 colon
# ACHN renal = tested on: ACHN renal
# SNB-75 CNS = tested on: SNB-75 CNS
# SK-MEL-5 melanoma = tested on: SK-MEL-5 melanoma
# SNB-78 CNS = tested on: SNB-78 CNS
# SR leukemia = tested on: SR leukemia
# NCI-H23 lung = tested on: NCI-H23 lung
# HCT-116 colon = tested on: HCT-116 colon
# RXF 393 renal = tested on: RXF 393 renal
# HCC-2998 colon = tested on: HCC-2998 colon
# HCT-15 colon = tested on: HCT-15 colon
# UACC-257 melanoma = tested on: UACC-257 melanoma
# 786-0 renal = tested on: 786-0 renal
# SF-295 CNS = tested on: SF-295 CNS
# OVCAR-5 ovarian = tested on: OVCAR-5 ovarian
# A498 renal = tested on: A498 renal
# SNB-19 CNS = tested on: SNB-19 CNS
# NCI-H226 lung = tested on: NCI-H226 lung
# K-562 leukemia = tested on: K-562 leukemia
# HS 578T breast = tested on: HS 578T breast
# DU-145 prostate = tested on: DU-145 prostate
# PC-3 prostate = tested on: PC-3 prostate
# NCI/ADR-RES ovarian = tested on: NCI/ADR-RES ovarian
# T-47D breast = tested on: T-47D breast
# MDA-MB-435 = tested on: MDA-MB-435
# BT-549 breast = tested on: BT-549 breast
# MDA-MB-231 breast = tested on: MDA-MB-231 breast
# MCF7 breast = tested on: MCF7 breast
# MDA-N = tested on: MDA-N
# IGROV1 ovarian = tested on: IGROV1 ovarian
smiles,measurement,setting,value
Cc1cc(N(CCC#N)CCC#N)ccc1N=Nc1ccc([N+](=O)[O-])cc1,TGI,SW-620 colon,> 10 µM
same,TGI,OVCAR-4 ovarian,44.1 µM
same,TGI,MALME-3M melanoma,> 100 µM
same,TGI,HOP-62 NSCLC,> 100 µM
same,TGI,NCI-H460 lung,> 100 µM
same,TGI,RPMI-8226 leukemia,> 100 µM
same,TGI,U251 CNS,36.1 µM
same,TGI,TK-10 renal,83.2 µM
same,TGI,EKVX NSCLC,> 100 µM
same,TGI,MOLT-4 leukemia,> 100 µM
same,TGI,LOX IMVI melanoma,80.6 µM
same,TGI,SN12C renal,> 100 µM
same,TGI,KM20L2 colon,> 100 µM
same,TGI,CAKI-1 renal,> 100 µM
same,TGI,HL-60(TB) leukemia,> 100 µM
same,TGI,CCRF-CEM leukemia,> 100 µM
same,TGI,OVCAR-3 ovarian,> 100 µM
same,TGI,UACC-62 melanoma,> 10 µM
same,TGI,NCI-H522 lung,> 100 µM
same,TGI,M19-MEL melanoma,> 100 µM
same,TGI,DMS 273 small cell lung,44.4 µM
same,TGI,HOP-92 NSCLC,> 100 µM
same,TGI,SK-MEL-28 melanoma,> 100 µM
same,TGI,KM12 colon,> 100 µM
same,TGI,A549 NSCLC,> 100 µM
same,TGI,DMS 114 small cell lung,33 µM
same,TGI,HT29 colon,> 100 µM
same,TGI,SF-539 CNS,> 100 µM
same,TGI,SK-MEL-2 melanoma,> 100 µM
same,TGI,SK-OV-3 ovarian,> 10 µM
same,TGI,SF-268 CNS,> 100 µM
same,TGI,UO-31 renal,> 100 µM
same,TGI,OVCAR-8 ovarian,56.9 µM
same,TGI,M14 melanoma,> 100 µM
same,TGI,COLO 205 colon,> 100 µM
same,TGI,ACHN renal,> 100 µM
same,TGI,SNB-75 CNS,> 10 µM
same,TGI,SK-MEL-5 melanoma,> 10 µM
same,TGI,SNB-78 CNS,> 100 µM
same,TGI,SR leukemia,> 100 µM
same,TGI,NCI-H23 lung,> 100 µM
same,TGI,HCT-116 colon,31.6 µM
same,TGI,RXF 393 renal,> 100 µM
same,TGI,HCC-2998 colon,> 100 µM
same,TGI,HCT-15 colon,> 100 µM
same,TGI,UACC-257 melanoma,> 100 µM
same,TGI,786-0 renal,> 100 µM
same,TGI,SF-295 CNS,> 100 µM
same,TGI,OVCAR-5 ovarian,> 100 µM
same,TGI,A498 renal,> 100 µM
same,TGI,SNB-19 CNS,57.3 µM
same,TGI,NCI-H226 lung,> 100 µM
same,TGI,K-562 leukemia,> 100 µM
O=C(CCl)Nc1ccc(-c2nc3ccccc3s2)cc1,TGI,SW-620 colon,5.07 µM
same,TGI,OVCAR-4 ovarian,15.2 µM
same,TGI,MALME-3M melanoma,4.13 µM
same,TGI,HOP-62 NSCLC,12.3 µM
same,TGI,HS 578T breast,20.1 µM
same,TGI,NCI-H460 lung,7.46 µM
same,TGI,RPMI-8226 leukemia,5.34 µM
same,TGI,U251 CNS,3.15 µM
same,TGI,DU-145 prostate,38 µM
same,TGI,TK-10 renal,22.6 µM
same,TGI,EKVX NSCLC,17.1 µM
same,TGI,MOLT-4 leukemia,12.8 µM
same,TGI,PC-3 prostate,6.71 µM
same,TGI,LOX IMVI melanoma,2.31 µM
same,TGI,SN12C renal,4.2 µM
same,TGI,CAKI-1 renal,3.38 µM
same,TGI,HL-60(TB) leukemia,5.73 µM
same,TGI,NCI/ADR-RES ovarian,> 56.2 µM
same,TGI,CCRF-CEM leukemia,> 36.7 µM
same,TGI,OVCAR-3 ovarian,3.61 µM
same,TGI,UACC-62 melanoma,8.71 µM
same,TGI,NCI-H522 lung,3.64 µM
same,TGI,T-47D breast,5.59 µM
same,TGI,HOP-92 NSCLC,6.08 µM
same,TGI,SK-MEL-28 melanoma,9.66 µM
same,TGI,KM12 colon,11 µM
same,TGI,A549 NSCLC,21.8 µM
same,TGI,HT29 colon,5.57 µM
same,TGI,SF-539 CNS,8.16 µM
same,TGI,SK-MEL-2 melanoma,8.37 µM
same,TGI,SK-OV-3 ovarian,17.5 µM
same,TGI,SF-268 CNS,8.44 µM
same,TGI,UO-31 renal,20.6 µM
same,TGI,MDA-MB-435,12.2 µM
same,TGI,OVCAR-8 ovarian,9.66 µM
same,TGI,M14 melanoma,4.98 µM
same,TGI,BT-549 breast,2950 nM
same,TGI,COLO 205 colon,3.82 µM
same,TGI,ACHN renal,13.8 µM
same,TGI,SNB-75 CNS,11 µM
same,TGI,SK-MEL-5 melanoma,3.17 µM
same,TGI,SR leukemia,5.49 µM
same,TGI,NCI-H23 lung,10.2 µM
same,TGI,HCT-116 colon,5.81 µM
same,TGI,RXF 393 renal,7.67 µM
same,TGI,HCC-2998 colon,5.91 µM
same,TGI,HCT-15 colon,6.65 µM
same,TGI,UACC-257 melanoma,11.6 µM
same,TGI,786-0 renal,4.62 µM
same,TGI,SF-295 CNS,15 µM
same,TGI,MDA-MB-231 breast,16.8 µM
same,TGI,MCF7 breast,2390 nM
same,TGI,OVCAR-5 ovarian,17.1 µM
same,TGI,A498 renal,11.7 µM
same,TGI,SNB-19 CNS,9.99 µM
same,TGI,MDA-N,7.89 µM
same,TGI,NCI-H226 lung,5.11 µM
same,TGI,K-562 leukemia,4.56 µM
same,TGI,IGROV1 ovarian,3.3 µM

# — PubChem BioAssay (NCI)
